# Source: patent publication US20230150921A1, “PHENOLIC ACID LIPID BASED CATIONIC LIPIDS” (Translate Bio, Inc., priority 2020, published 2023)
# Test: Characterisation of lipid nanoparticle formulations (size, PDI, mRNA encapsulation)
# Type: physicochemical
# Conditions: lipid nanoparticle with FFL mRNA; Process A; Cationic Lipid:DMG-PEG2000:Cholesterol:DOPE 40:5:25:30 mol%; N/P 4
# Protocol: One exemplary process for lipid nanoparticle formulation is Process A of WO 2018/089801 (see, e.g., Example 1 and FIG. 1 of WO 2018/089801). Process A (“A”) relates to a conventional method of encapsulating mRNA by mixing mRNA with a mixture of lipids, without first pre-forming the lipids into lipid nanoparticles. In an exemplary process, an ethanol lipid solution and an aqueous buffered solution of mRNA were prepared separately. A solution of mixture of lipids (cationic lipid, helper lipids, zwitterionic lipids, PEG lipids etc.) was prepared by dissolving lipids in ethanol. The mRNA solution was prepared by dissolving the mRNA in citrate buffer. The mixtures were then both heated to 65° C. prior to mixing. Then, these two solutions were mixed using a pump system. In some instances, the two solutions were mixed using a gear pump system. In certain embodiments, the two solutions were mixing using a ‘T’ junction (or “Y” junction). The mixture was then purified by diafiltration with a TFF process. The resultant formulation concentrated and stored at 2-8° C. until further use. A second exemplary process for lipid nanoparticle formulation is Process B of WO 2018/089801 (see, e.g., Example 2 and the FIGURE of WO 2018/089801). Process B (“B”) refers to a process of encapsulating messenger RNA (mRNA) by mixing pre-formed lipid nanoparticles with mRNA. A range of different conditions, such as varying temperatures (i.e., heating or not heating the mixture), buffers, and concentrations, may be employed in Process B. In an exemplary process, lipids dissolved in ethanol and citrate buffer were mixed using a pump system. […] The resultant formulation mixture was empty lipid nanoparticles in citrate buffer containing alcohol. The formulation was then subjected to a TFF purification process wherein buffer exchange occurred. The resulting suspension of pre-formed empty lipid nanoparticles was then mixed with mRNA using a pump system. […] The lipid nanoparticle formulations of Table 5 were prepared by either Process A or B. Each formulation comprised mRNA encoding firefly luciferase protein (FFL mRNA) and lipids (Cationic Lipid: DMG-PEG2000; Cholesterol: DOPE) in the mol % ratios set forth in Table 5.
SMILES,Encapsulation %,PDI,Size (nm)
CCCCCCCCC(O)CN(CCCC(=O)Oc1c(OC)cc(C(=O)OCCCN(C)C)cc1OC)CC(O)CCCCCCCC (stereo not drawn) [Compound 1],94%,0.235,47.6 nm
CCCCCCCCCCCCC(O)CN(CCCCC(=O)Oc1c(OC)cc(C(=O)OCCCN(C)C)cc1OC)CC(O)CCCCCCCCCCCC (stereo not drawn) [Compound 6],73%,0.208,47.0 nm
CCCCCCCCCCC(O)CN(CCCCC(=O)Oc1c(OC)cc(C(=O)OCCCN(C)C)cc1OC)CC(O)CCCCCCCCCC (stereo not drawn) [Compound 4],91%,0.198,41.4 nm
CCCCCCCCC(O)CN(CCCCC(=O)Oc1c(OC)cc(C(=O)OCCCN(C)C)cc1OC)CC(O)CCCCCCCC (stereo not drawn) [Compound 3],89%,0.207,40.3 nm
CCCCCCCCC(O)CN(CCCCC(=O)Oc1c(OC)cc(C(=O)OCCCN(C)C)cc1OC)CC(O)CCCCCCCC (stereo not drawn) [Compound 9],79%,0.213,42.3 nm
CCCCCCC/C=C\C/C=C\CCCCC(O)CN(CCCC(=O)Oc1c(OC)cc(C(=O)OCCCN(C)C)cc1OC)CC(O)CCCC/C=C\C/C=C\CCCCCCC (stereo not drawn) [Compound 7],95%,0.429,64.2 nm
CCCCCCCCCCCCC(O)CN(CCCCC(=O)Oc1c(OC)cc(/C=C/C(=O)OCCCN(C)C)cc1OC)CC(O)CCCCCCCCCCCC (stereo not drawn) [Compound 11],98%,0.214,44.0 nm
CCCCCCCCCCC(O)CN(CCCCC(=O)Oc1c(OC)cc(/C=C/C(=O)OCCCN(C)C)cc1OC)CC(O)CCCCCCCCCC (stereo not drawn) [Compound 10],94%,0.213,43.3 nm
CCCCCCCCCCC(O)CN(CCCC(=O)Oc1c(OC)cc(/C=C/C(=O)OCCCN(C)C)cc1OC)CC(O)CCCCCCCCCC (stereo not drawn) [Compound 8],95%,0.193,43.3 nm
CCCCCCCCCCCCC(O)CN(CCCC(=O)Oc1c(OC)cc(C(=O)OCCCN(C)C)cc1OC)CC(O)CCCCCCCCCCCC (stereo not drawn) [Compound 5],97%,0.249,48.4 nm
CCCCCCCCCCC(O)CN(CCCC(=O)Oc1ccc(C(=O)OCCCN(C)C)cc1CC)CC(O)CCCCCCCCCC (stereo not drawn) [Compound 12],96%,0.173,65.1 nm
CCCCCCCCCCC(O)CN(CCCC(=O)Oc1c(OC)cc(C(=O)OCCCN(C)C)cc1OC)CC(O)CCCCCCCCCC (stereo not drawn) [Compound 2],94%,0.251,48.9 nm
